Reference: patent publication US11925650B2, “Antibacterial chemical compound, its manufacturing method and its use thereof” (National Taiwan University, priority 2022, dated 2024)
Like-named read-outs stand apart in the source and are kept apart here.

Key:
[1] = test system: S. Typhimurium 14028; assay: Anti-intracellular Salmonella activity in infected RAW264.7 cells (HCA); assay type: cell-based, Salmonella Typhimurium; details: for Selectivity ratio (IC50/EC50): IC50 RAW264.7 / EC50 S. Typhimurium 14028
[2] = test system: RAW264.7; assay: Cytotoxicity in RAW264.7 cells (HCA, MTT cell viability assay); assay type: cell-based
Method: The cell viability was evaluated using HCA and an MTT cell viability assay, and the data are expressed as a percentage relative to the untreated control and are presented as the mean±SD (n=3 per group).

[3] = Salmonella enterica, TYPHIMURIUM, RAW264.7, read-out: EC50 (μM) S. Typhimurium 14028, intracellular Salmonella in infected RAW264.7 cells
[4] = Mus musculus, RAW264.7, read-out: IC50 (μM) RAW264.7
[5] = Salmonella enterica, TYPHIMURIUM, intracellular Salmonella in infected RAW264.7 cells, read-out: EC50 (μM) S. Typhimurium 14028
[6] = Mus musculus, cytotoxicity, RAW264.7 cells, read-out: IC50 (μM) RAW264.7

Molecule “2-chloro-11-(3-(3,4-dichlorophenyl)propyl)dibenzo[b,f][1,4]oxazepine [SW15]” has an EC50 ([1]; intracellular Salmonella in infected RAW264.7 cells, read-out: EC50 (μM) S. Typhimurium 14028) of 31.1 µM and an IC50 ([2]; cytotoxicity, RAW264.7 cells, read-out: IC50 (μM) RAW264.7) of 82.7 µM.

For `CN(C)CCNC1=Nc2ccccc2Oc2ccc(Cl)cc21` [SW1, N1-(2-chlorodibenzo[b,f][1,4]oxazepin-11-yl)-N2,N2-dimethylethane-1,2-diamine], the “Selectivity ratio (IC50/EC50)” value [1] was 9.5, the EC50 [1, 3] was 3.6 µM and the IC50 [2, 4] was 34.6 µM.

`Clc1ccc2c(c1)C(NCCN1CCCC1)=Nc1ccccc1O2` [SW2, 2-chloro-N-(2-(pyrrolidin-1-yl)ethyl)dibenzo[b,f][1,4]oxazepin-11-amine] was tested, and the “Selectivity ratio (IC50/EC50)” value [1] was 5.4, the EC50 [1, 3] was 4.9 µM and the IC50 [2, 4] was 26.6 µM.

`Clc1ccc2c(c1)C(NCCN1CCCCC1)=Nc1ccccc1O2` [SW3, 2-chloro-N-(2-(piperidin-1-yl)ethyl)dibenzo[b,f][1,4]oxazepin-11-amine] was tested, and the “Selectivity ratio (IC50/EC50)” value [1] was 5.1, the EC50 [1, 3] was 4.3 µM and the IC50 [2, 4] was 22.2 µM.

With `Clc1ccc2c(c1)C(NCCN1CCOCC1)=Nc1ccccc1O2` [SW4, 2-chloro-N-(2-morpholinoethyl)dibenzo[b,f][1,4]oxazepin-11-amine] the “Selectivity ratio (IC50/EC50)” value [1] was 2.6, the EC50 [1, 3] was 32 µM and the IC50 [2, 4] was 84.7 µM.

For `Clc1ccc2c(c1)C(NCCc1cccnc1)=Nc1ccccc1O2` [SW5, 2-chloro-N-(2-(pyridin-3-yl)ethyl)dibenzo[b,f][1,4]oxazepin-11-amine], the “Selectivity ratio (IC50/EC50)” value [1] was 1.9, the EC50 [1, 3] was 38.2 µM and the IC50 [2, 4] was 74 µM.

In the case of `CN1CCCC1CCNC1=Nc2ccccc2Oc2ccc(Cl)cc21` (stereo not shown) [SW6, 2-chloro-N-(2-(1-methylpyrrolidin-2-yl)ethyl)dibenzo[b,f][1,4]oxazepin-11-amine], the “Selectivity ratio (IC50/EC50)” value [1] is reported as 18.9, the EC50 [1, 3] is reported as 1.2 µM and the IC50 [2, 4] is reported as 23 µM.

In the case of `Clc1ccc2c(c1)C(NCCc1ccccc1)=Nc1ccccc1O2` [SW7, 2-chloro-N-phenethyldibenzo[b,f][1,4]oxazepin-11-amine], the “Selectivity ratio (IC50/EC50)” value [1] is reported as 2.7, the EC50 [1, 3] is reported as 21.2 µM and the IC50 [2, 4] is reported as 56.3 µM.

`CCCCCNC1=Nc2ccccc2Oc2ccc(Cl)cc21` [SW8, 2-chloro-N-pentyldibenzo[b,f][1,4]oxazepin-11-amine] was tested, and the “Selectivity ratio (IC50/EC50)” value [1] was 1.3, the EC50 [1, 3] was 54.1 µM and the IC50 [2, 4] was 72.7 µM.

For `Clc1ccc2c(c1)C(NCc1ccccc1)=Nc1ccccc1O2` [SW9, N-benzyl-2-chlorodibenzo[b,f][1,4]oxazepin-11-amine], the “Selectivity ratio (IC50/EC50)” value [1] was 3.1, the EC50 [1, 3] was 19.7 µM and the IC50 [2, 4] was 60.8 µM.

In the case of `Clc1ccc2c(c1)C(NCC1CC1)=Nc1ccccc1O2` [SW11, 2-chloro-N-(cyclopropylmethyl)dibenzo[b,f][1,4]oxazepin-11-amine], the “Selectivity ratio (IC50/EC50)” value [1] is reported as 1.7, the EC50 [1, 3] is reported as 44 µM and the IC50 [2, 4] is reported as 74 µM.

In the case of `Oc1ccc(CCNC2=Nc3ccccc3Oc3ccc(Cl)cc32)cc1` [SW12, 4-(2-((2-chlorodibenzo[b,f][1,4]oxazepin-11-yl)amino)ethyl)phenol], the “Selectivity ratio (IC50/EC50)” value [1] is reported as 1.6, the EC50 [1, 3] is reported as 33.5 µM and the IC50 [2, 4] is reported as 52.1 µM.

With `CCCNC1=Nc2ccccc2Oc2ccc(Cl)cc21` [SW13, 2-chloro-N-propyldibenzo[b,f][1,4]oxazepin-11-amine] the “Selectivity ratio (IC50/EC50)” value [1] was 2.0, the EC50 [1, 3] was 56 µM and the IC50 [2, 4] was 112 µM.

In the case of `Clc1ccc2c(c1)C(NCCc1ccncc1)=Nc1ccccc1O2` [SW16, 2-chloro-N-(2-(pyridin-4-yl)ethyl)dibenzo[b,f][1,4]oxazepin-11-amine], the “Selectivity ratio (IC50/EC50)” value [1] is reported as 2.8, the EC50 [1, 3] is reported as 18.5 µM and the IC50 [2, 4] is reported as 51.1 µM.

In the case of `CCC(CC)NC1=Nc2ccccc2Oc2ccc(Cl)cc21` [SW17, 2-chloro-N-(pentan-3-yl)dibenzo[b,f][1,4]oxazepin-11-amine], the “Selectivity ratio (IC50/EC50)” value [1] is reported as 2.6, the EC50 [1, 3] is reported as 28.5 µM and the IC50 [2, 4] is reported as 72.8 µM.

In the case of `CC(C)CCNC1=Nc2ccccc2Oc2ccc(Cl)cc21` [SW18, 2-chloro-N-isopentyldibenzo[b,f][1,4]oxazepin-11-amine], the “Selectivity ratio (IC50/EC50)” value [1] is reported as 1.3, the EC50 [1, 3] is reported as 55.1 µM and the IC50 [2, 4] is reported as 70.1 µM.

`Fc1ccc(CCNC2=Nc3ccccc3Oc3ccc(Cl)cc32)cc1` [SW19, 2-chloro-N-(4-fluorophenethyl)dibenzo[b,f][1,4]oxazepin-11-amine] was tested, and the “Selectivity ratio (IC50/EC50)” value [1] was 1.8, the EC50 [1, 3] was 61.5 µM and the IC50 [2, 4] was 112 µM.

`Clc1ccc(CCNC2=Nc3ccccc3Oc3ccc(Cl)cc32)cc1` [SW20, 2-chloro-N-(4-chlorophenethyl)dibenzo[b,f][1,4]oxazepin-11-amine] was tested, and the “Selectivity ratio (IC50/EC50)” value [1] was 2.0, the EC50 [1, 3] was 45.1 µM and the IC50 [2, 4] was 91.6 µM.

With `Clc1ccc2c(c1)C(NCCN1CCCCC1)=Nc1cccnc1N2` [SW21, 8-chloro-N-(2-(piperidin-1-yl)ethyl)-11H-benzo[e]pyrido[3,2-b][1,4]diazepin-6-amine] the “Selectivity ratio (IC50/EC50)” value [1] was 11.0, the EC50 [1, 5] was 5.8 µM and the IC50 [2, 6] was 63.6 µM.

For `Clc1ccc2c(c1)C(NCCCN1CCCC1)=Nc1ccccc1O2` [SW22, 2-chloro-N-(3-(pyrrolidin-1-yl)propyl)dibenzo[b,f][1,4]oxazepin-11-amine], the “Selectivity ratio (IC50/EC50)” value [1] was 14.8, the EC50 [1, 3] was 1.1 µM and the IC50 [2, 4] was 16.3 µM.

For `O=C1CCCN1CCCNC1=Nc2ccccc2Oc2ccc(Cl)cc21` [SW23, 1-(3-((2-chlorodibenzo[b,f][1,4]oxazepin-11-yl)amino)propyl)pyrrolidin-2-one], the “Selectivity ratio (IC50/EC50)” value [1] was >1.3, the EC50 [1, 3] was > 90 µM and the IC50 [2, 4] was > 90 µM.

In the case of `O=C(CNC1=Nc2ccccc2Oc2ccc(Cl)cc21)N1CCCC1` [SW24, 2-((2-chlorodibenzo[b,f][1,4]oxazepin-11-yl)amino)-1-(pyrrolidin-1-yl)ethan-1-one], the EC50 [1, 3] is reported as > 90 µM and the IC50 [2, 4] is reported as > 90 µM.

With `CN1CCCC1CCNC1=Nc2cccnc2Nc2ccc(Cl)cc21` (stereo not shown) [SW25, 8-chloro-N-(2-(1-methylpyrrolidin-2-yl)ethyl)-11H-benzo[e]pyrido[3,2-b][1,4]diazepin-6-amine] the “Selectivity ratio (IC50/EC50)” value [1] was 26.2, the EC50 [1, 5] was 3.3 µM and the IC50 [2, 6] was 85.5 µM.

With `Clc1ccc2c(c1)C(NCCCN1CCCCC1)=Nc1ccccc1O2` [SW26, 2-chloro-N-(3-(piperidin-1-yl)propyl)dibenzo[b,f][1,4]oxazepin-11-amine] the “Selectivity ratio (IC50/EC50)” value [1] was 14.6, the EC50 [1, 3] was 1.1 µM and the IC50 [2, 4] was 16.1 µM.

In the case of `CN(C)CCNC1=Nc2cccnc2Nc2ccc(Cl)cc21` [SW27, N1-(8-chloro-11H-benzo[e]pyrido[3,2-b][1,4]diazepin-6-yl)-N2,N2-dimeth ylethane-1,2-diamine], the “Selectivity ratio (IC50/EC50)” value [1] is reported as >13.9, the EC50 [1, 5] is reported as 6.5 µM and the IC50 [2, 6] is reported as > 90 µM.

With `Clc1ccc2c(c1)C(NCCN1CCCC1)=Nc1cccnc1N2` [SW28, 8-chloro-N-(2-(pyrrolidin-1-yl)ethyl)-11H-benzo[e]pyrido[3,2-b][1,4]diazepin-6-amine] the “Selectivity ratio (IC50/EC50)” value [1] was 6.8, the EC50 [1, 5] was 9.3 µM and the IC50 [2, 6] was 63.2 µM.

For `Clc1ccc2c(c1)C(NCCCN1CCCC1)=Nc1cccnc1N2` [SW29, 8-chloro-N-(3-(pyrrolidin-1-yl)propyl)-11H-benzo[e]pyrido[3,2-b][1,4]diazepin-6-amine], the “Selectivity ratio (IC50/EC50)” value [1] was 18.8, the EC50 [1, 5] was 5.3 µM and the IC50 [2, 6] was 101 µM.

With `CN1CCN(CCCNC2=Nc3cccnc3Nc3ccc(Cl)cc32)CC1` [SW31, 8-chloro-N-(3-(4-methylpiperazin-1-yl)propyl)-11H-benzo[e]pyrido[3,2-b][1,4]diazepin-6-amine] the “Selectivity ratio (IC50/EC50)” value [1] was 18.7, the EC50 [1, 5] was 7 µM and the IC50 [2, 6] was 129 µM.

For `Clc1ccc2c(c1)C(NCCCN1CCCCC1)=Nc1cccnc1N2` [SW32, 8-chloro-N-(3-(piperidin-1-yl)propyl)-11H-benzo[e]pyrido[3,2-b][1,4]diazepin-6-amine], the “Selectivity ratio (IC50/EC50)” value [1] was 16.4, the EC50 [1, 5] was 6.4 µM and the IC50 [2, 6] was 105 µM.

In the case of `c1ccc2c(c1)N=C(NCCCN1CCCC1)c1ccccc1N2` [SW33, N-(3-(pyrrolidin-1-yl)propyl)-5H-dibenzo[b,e][1,4]diazepin-11-amine], the “Selectivity ratio (IC50/EC50)” value [1] is reported as 213.4, the EC50 [1, 3] is reported as 0.7 µM and the IC50 [2, 4] is reported as 143 µM.

With `c1ccc2c(c1)N=C(NCCN1CCCCC1)c1ccccc1N2` [SW35, N-(2-(piperidin-1-yl)ethyl)-5H-dibenzo[b,e][1,4]diazepin-11-amine] the “Selectivity ratio (IC50/EC50)” value [1] was 29.3, the EC50 [1, 3] was 3.8 µM and the IC50 [2, 4] was 111 µM.

In the case of `Cc1cc2c(s1)Nc1ccccc1N=C2NCCN1CCCCC1` [SW38, 2-methyl-N-(2-(piperidin-1-yl)ethyl)-10H-benzo[b]thieno[2,3-e][1,4]diazepin-4-amine], the “Selectivity ratio (IC50/EC50)” value [1] is reported as 22.4, the EC50 [1, 3] is reported as 1.6 µM and the IC50 [2, 4] is reported as 36.5 µM.

With `Cc1cc2c(s1)Nc1ccccc1N=C2NCCN(C)C` [SW39, N1,N1-dimethyl-N2-(2-methyl-10H-benzo[b]thieno[2,3-e][1,4]diazepin-4-yl)ethane-1,2-diamine] the “Selectivity ratio (IC50/EC50)” value [1] was 72.5, the EC50 [1, 3] was 1.7 µM and the IC50 [2, 4] was 122 µM.

For `Cc1cc2c(s1)Nc1ccccc1N=C2NCCN1CCNCC1` [SW41, 2-methyl-N-(2-(piperazin-1-yl)ethyl)-10H-benzo[b]thieno[2,3-e][1,4]diazepin-4-amine], the “Selectivity ratio (IC50/EC50)” value [1] was 26.8, the EC50 [1, 3] was 3.9 µM and the IC50 [2, 4] was 105 µM.

In the case of `Cc1cc2c(s1)Nc1ccccc1N=C2NCCCN1CCCC1` [SW42, 2-methyl-N-(3-(pyrrolidin-1-yl)propyl)-10H-benzo[b]thieno[2,3-e][1,4]diazepin-4-amine], the “Selectivity ratio (IC50/EC50)” value [1] is reported as 82.6, the EC50 [1, 3] is reported as 0.9 µM and the IC50 [2, 4] is reported as 76.4 µM.

`Cc1cc2c(s1)Nc1ccccc1N=C2NCCCN(C)C` [SW43, N1,N1-dimethyl-N3-(2-methyl-10H-benzo[b]thieno[2,3-e][1,4]diazepin-4-yl)propane-1,3-diamine] was tested, and the “Selectivity ratio (IC50/EC50)” value [1] was 82.1, the EC50 [1, 3] was 1.2 µM and the IC50 [2, 4] was 102 µM.
